Reference: the NIST ThermoML archive (doi:10.1021/je049609w)

How the values were obtained:
[1] = xn = mol fraction of the nth substance listed; conditions: 101 kPa, Liquid
[2] = refractive index (Na D-line) (dimensionless); xn = mol fraction of the nth substance listed; conditions: 101 kPa, Liquid

C1COCCO1 [1,4-dioxane] + OCCCl
x1 = 1
Conditions	mass density, 298.15 K [kg/m3]	mass density, 303.15 K [kg/m3]	mass density, 308.15 K [kg/m3]	refractive index, 298.15 K	refractive index, 303.15 K	refractive index, 308.15 K	speed of sound, 298.15 K [m/s]	viscosity, 298.15 K [mPa·s]	viscosity, 303.15 K [mPa·s]	viscosity, 308.15 K [mPa·s]
[1]	1028.6	1022.9	1017.2	–	–	–	1345	1.196	1.095	1.008
[2]	–	–	–	1.4203	1.4164	1.4145	–	–	–	–

C1COCCO1 [1,4-dioxane] + ClC=C(Cl)Cl
x1 = 1
Conditions	mass density, 298.15 K [kg/m3]	mass density, 303.15 K [kg/m3]	mass density, 308.15 K [kg/m3]	refractive index, 298.15 K	refractive index, 303.15 K	refractive index, 308.15 K	speed of sound, 298.15 K [m/s]	viscosity, 298.15 K [mPa·s]	viscosity, 303.15 K [mPa·s]	viscosity, 308.15 K [mPa·s]
[1]	1028.6	1022.9	1017.2	–	–	–	1345	1.196	1.102	1.008
[2]	–	–	–	1.4203	1.4164	1.4145	–	–	–	–

C1COCCO1 [1,4-dioxane] + CC(=O)N(C)C
x1 = 1
Conditions	mass density, 298.15 K [kg/m3]	mass density, 303.15 K [kg/m3]	mass density, 308.15 K [kg/m3]	refractive index, 298.15 K	refractive index, 303.15 K	refractive index, 308.15 K	speed of sound, 298.15 K [m/s]	viscosity, 298.15 K [mPa·s]	viscosity, 303.15 K [mPa·s]	viscosity, 308.15 K [mPa·s]
[1]	1028.6	1022.9	1017.2	–	–	–	1345	1.196	1.095	1.008
[2]	–	–	–	1.4203	1.4164	1.4145	–	–	–	–

CC(=O)N(C)C [N,N-dimethylethanamide] + C1COCCO1
Conditions	mass density, 298.15 K [kg/m3]	mass density, 303.15 K [kg/m3]	mass density, 308.15 K [kg/m3]	refractive index, 298.15 K	refractive index, 303.15 K	refractive index, 308.15 K	speed of sound, 298.15 K [m/s]	viscosity, 298.15 K [mPa·s]	viscosity, 303.15 K [mPa·s]	viscosity, 308.15 K [mPa·s]
[1], x2 = 0	946.8	942.1	937.5	–	–	–	1458	1.261	1.154	1.047
[1], x2 = 0.1121	954.8	950.1	945.4	–	–	–	1447	1.255	1.149	1.043
[1], x2 = 0.2162	962.4	957.6	952.9	–	–	–	1436	1.248	1.144	1.039
[1], x2 = 0.3203	970	965.2	960.3	–	–	–	1424	1.242	1.138	1.035
[1], x2 = 0.4222	977.9	972.9	968	–	–	–	1413	1.235	1.133	1.031
[1], x2 = 0.5242	985.9	980.9	975.9	–	–	–	1401	1.228	1.128	1.027
[1], x2 = 0.6219	993.9	988.8	983.6	–	–	–	1390	1.222	1.123	1.023
[1], x2 = 0.7198	1002.1	996.8	991.6	–	–	–	1379	1.215	1.117	1.019
[1], x2 = 0.8157	1010.5	1005.3	999.8	–	–	–	1367	1.209	1.105	1.016
[1], x2 = 0.9116	1019.2	1013.7	1008.2	–	–	–	1356	1.202	1.099	1.012
[2], x2 = 0	–	–	–	1.4363	1.4342	1.432	–	–	–	–
[2], x2 = 0.1121	–	–	–	1.4346	1.4324	1.4302	–	–	–	–
[2], x2 = 0.2162	–	–	–	1.4328	1.4306	1.4284	–	–	–	–
[2], x2 = 0.3203	–	–	–	1.431	1.4287	1.4264	–	–	–	–
[2], x2 = 0.4222	–	–	–	1.4293	1.4269	1.4246	–	–	–	–
[2], x2 = 0.5242	–	–	–	1.4275	1.4252	1.4228	–	–	–	–
[2], x2 = 0.6219	–	–	–	1.4259	1.4234	1.421	–	–	–	–
[2], x2 = 0.7198	–	–	–	1.4242	1.4226	1.4191	–	–	–	–
[2], x2 = 0.8157	–	–	–	1.4226	1.421	1.4174	–	–	–	–
[2], x2 = 0.9116	–	–	–	1.421	1.4195	1.4157	–	–	–	–
